PubChem BioAssay AID2060331 (Molecular Pharmacology Branch, DTP, NCI, 2025)
Several values for one entry are separate records, joined by “and”; a condition that tells them apart may be missing. Equal entries are not always repeated.

Tested on: Hs578T multi-cell spheroids, viability
Test: Anticancer human tumor Hs578T cell line growth inhibition [IpAb];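 further: drug exposure lasted 7 days before readout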
Details: for viability, T/C: stronger effect = lower value
Source text: Combinatorial screen of targeted agents with ipatasertib and abemaciclib in multi-cell type tumor spheroids
A high-throughput screen of multi-cell type tumor spheroids was designed to identify active combinations of targeted small molecules and ipatasertib or abemaciclib. Complex spheroids include a stromal component modeled by human endothelial cells (HUVEC) and fibroblasts modeled by human mesenchymal stem cells (MSCs). The concentration ranges selected for each drug and investigational agent were based upon clinically achievable concentrations if the clinical Cmax of the agent was known.
Compounds. The drugs and investigational agents: ipatasertib (NSC767898), abemaciclib(NSC768073), selumetinib (NSC741078), trametinib (758246), adavosertib (NSC754352), everolimus (NSC733504), sapanisertib (NSC764658), vemurafenib (NSC761431), venetoclax (NSC766270), copanlisib (NSC809693), apelisib (NSC765974), palbociblib (NSC758247), vemurafenib (NSC761431), dabrafenib (NSC764134), ravoxertinib (NSC781343), BMS-387032 (NSC767048), sotorasib (NSC818433), talazoparib (NSC767125) and afursertib (NSC778305), were obtained from the National Cancer Institute (NCI) Developmental Therapeutics Program Chemical Repository. The FDA-approved anticancer drug set is available from the NCI Developmental Therapeutics Program. […] The stock solutions were prepared in dimethyl sulfoxide (DMSO, Sigma-Aldrich, St. Louis, MO, cat. D2650) at 800-fold the tested concentration and stored at -70 degrees C prior to their use. All drugs and investigational agents were tested over a range starting from a high concentration at or near the clinical Cmax and decreasing in half-log increments. If the clinical Cmax for an agent had not been determined, the highest concentration tested was 10 microM.
NCI60 Cell Culture. NCI60 cell lines were obtained from the NCI Developmental Therapeutics Program Tumor Repository. For each lot of cells, the Repository performed Applied Biosystems AmpFLSTR Identifiler testing with PCR amplification to confirm consistency with the published Identifier STR profile for each cell line. Cells were kept in continuous culture for no more than 20 passages. The optimal seeding densities for each of the cell lines at each time point assessed were determined prior to performing the concentration response studies. Briefly, the NCI60 human tumor lines were grown as monolayers in RPMI 1640 medium supplemented with 10% FBS and 2 mmol/L L-glutamine.
An additional 9 lines were from the NCI60 cell line panel including MDA-MB-231 breast carcinoma, MDA-MB-468 breast carcinoma, MCF7 breast carcinoma, Hs578T breast carcinoma, MALME-3M melanoma, SK-MEL-2 melanoma, SK-OV-3 ovarian carcinoma, DU-145 prostate carcinoma, PC-3 prostate carcinoma, all cell lines along with major genetic alterations are listed on Table 2. Pooled donor human umbilical vein endothelial cells (HUVEC, Lonza, cat. CC-2519) and human mesenchymal stem cells (hMSC, Lonza, cat. PT-2501) were purchased from Lonza (Walkersville, MD).
PDMR cell lines were grown in complete medium (DC medium): Dulbecco's modified Eagle's medium (DMEM)/F12 supplemented with 5% fetal bovine serum (FBS), 2 mM L-glutamine, 100 U/mL penicillin and 100 µg/ml streptomycin, 0.4 µg/ml hydrocortisone, 10 ng/ml epidermal growth factor (EGF) recombinant human protein, 24 µg/mL adenine, and 0.1 mg/mL primocin. During culture from frozen stock vials, PDMR cells were cultured in the same medium containing 10 µM Y-27632 (see Table 3). The PDCs were cultured in complete DMEM/F12 media without 10 microM Y-27632 dihydrochloride for at least two passages prior to the screen. The pooled donor HUVEC and hMSC were cultured in endothelial cell growth medium 2 (PromoCell, Heidelberg, Germany, cat. C-22011) and mesenchymal stem cell growth medium 2 (PromoCell, cat. C-28009), respectively. For all experiments, HUVEC and hMSC were used at passages </=5.
[…]

[1] = curve of first compound, second compound 0.1 µM
[2] = curve of first compound, second compound 0.316 µM
[3] = curve of first compound, second compound 1 µM

CC(=O)c1c(C)c2cnc(Nc3ccc(N4CCNCC4)cn3)nc2n(C2CCCC2)c1=O + CC(C)NCC(C(=O)N1CCN(c2ncnc3c2C(C)CC3O)CC1)c1ccc(Cl)cc1
IC50 [1]: > 300 nM
IC50 [2]: > 300 nM
IC50 [3]: 20 nM
IC50 (curve of first compound, second compound 3.16 µM): 11.1 nM
IC50 (curve of first compound, second compound 10 µM): < 0.949 nM
viability, T/C (second compound 0.1 µM, first compound 0.000949 µM): 96.7%
viability, T/C (second compound 0.1 µM, first compound 0.003 µM): 86.1%
viability, T/C (second compound 0.1 µM, first compound 0.00949 µM): 83.3%
viability, T/C (second compound 0.1 µM, first compound 0.03 µM): 71.4%
viability, T/C (second compound 0.1 µM, first compound 0.0949 µM): 64.2%
viability, T/C (second compound 0.1 µM, first compound 0.3 µM): 60.1%
viability, T/C (second compound 0.316 µM, first compound 0.000949 µM): 92.7%
viability, T/C (second compound 0.316 µM, first compound 0.003 µM): 79.7%
viability, T/C (second compound 0.316 µM, first compound 0.00949 µM): 70.3%
viability, T/C (second compound 0.316 µM, first compound 0.03 µM): 62.3%
viability, T/C (second compound 0.316 µM, first compound 0.0949 µM): 59.4%
viability, T/C (second compound 0.316 µM, first compound 0.3 µM): 49.5%
viability, T/C (second compound 1 µM, first compound 0.000949 µM): 62.7%
viability, T/C (second compound 1 µM, first compound 0.003 µM): 67.7%
viability, T/C (second compound 1 µM, first compound 0.00949 µM): 56.1%
viability, T/C (second compound 1 µM, first compound 0.03 µM): 48.6%
viability, T/C (second compound 1 µM, first compound 0.0949 µM): 43%
viability, T/C (second compound 1 µM, first compound 0.3 µM): 47.2%
viability, T/C (second compound 3.16 µM, first compound 0.000949 µM): 55.6%
viability, T/C (second compound 3.16 µM, first compound 0.003 µM): 58.8%
viability, T/C (second compound 3.16 µM, first compound 0.00949 µM): 52.8%
viability, T/C (second compound 3.16 µM, first compound 0.03 µM): 41.2%
viability, T/C (second compound 3.16 µM, first compound 0.0949 µM): 42.3%
viability, T/C (second compound 3.16 µM, first compound 0.3 µM): 38.8%
viability, T/C (second compound 10 µM, first compound 0.000949 µM): 48.7%
viability, T/C (second compound 10 µM, first compound 0.003 µM): 47.5%
viability, T/C (second compound 10 µM, first compound 0.00949 µM): 41.7%
viability, T/C (second compound 10 µM, first compound 0.03 µM): 35.5%
viability, T/C (second compound 10 µM, first compound 0.0949 µM): 35.6%
viability, T/C (second compound 10 µM, first compound 0.3 µM): 37.3%

Cc1nc(NC(=O)N2CCCC2C(N)=O)sc1-c1ccnc(C(C)(C)C(F)(F)F)c1 (configuration not stated)
viability, T/C (compound 0.0316 µM): 96.6% and 110%
viability, T/C (compound 0.1 µM): 93.1% and 95.3%
viability, T/C (compound 0.316 µM): 79.6% and 79.2%
viability, T/C (compound 1 µM): 60% and 58.8%
viability, T/C (compound 3.16 µM): 42.5% and 45.5%
viability, T/C (compound 10 µM): 13.9% and 16.4%
IC50 (curve of compound): 1930 nM and 1900 nM

Cn1ncnc1[C@H]1c2n[nH]c(=O)c3cc(F)cc(c23)N[C@@H]1c1ccc(F)cc1 + CCN1CCN(Cc2ccc(Nc3ncc(F)c(-c4cc(F)c5nc(C)n(C(C)C)c5c4)n3)nc2)CC1
IC50 (curve of first compound, second compound 0.01 µM): > 100 nM
IC50 (curve of first compound, second compound 0.0316 µM): > 100 nM
IC50 [1]: > 100 nM
IC50 [2]: > 100 nM
IC50 [3]: > 100 nM
viability, T/C (second compound 0.01 µM, first compound 0.000316 µM): 101%
viability, T/C (second compound 0.01 µM, first compound 0.001 µM): 100%
viability, T/C (second compound 0.01 µM, first compound 0.00316 µM): 95.2%
viability, T/C (second compound 0.01 µM, first compound 0.01 µM): 88.1%
viability, T/C (second compound 0.01 µM, first compound 0.0316 µM): 93.4%
viability, T/C (second compound 0.01 µM, first compound 0.1 µM): 88.4%
viability, T/C (second compound 0.0316 µM, first compound 0.000316 µM): 99.3%
viability, T/C (second compound 0.0316 µM, first compound 0.001 µM): 94.3%
viability, T/C (second compound 0.0316 µM, first compound 0.00316 µM): 91.5%
viability, T/C (second compound 0.0316 µM, first compound 0.01 µM): 93%
viability, T/C (second compound 0.0316 µM, first compound 0.0316 µM): 87.3%
viability, T/C (second compound 0.0316 µM, first compound 0.1 µM): 84.8%
viability, T/C (second compound 0.1 µM, first compound 0.000316 µM): 84.9%
viability, T/C (second compound 0.1 µM, first compound 0.001 µM): 87.8%
viability, T/C (second compound 0.1 µM, first compound 0.00316 µM): 86.8%
viability, T/C (second compound 0.1 µM, first compound 0.01 µM): 81.8%
viability, T/C (second compound 0.1 µM, first compound 0.0316 µM): 85.5%
viability, T/C (second compound 0.1 µM, first compound 0.1 µM): 85.7%
viability, T/C (second compound 0.316 µM, first compound 0.000316 µM): 89.8%
viability, T/C (second compound 0.316 µM, first compound 0.001 µM): 88.2%
viability, T/C (second compound 0.316 µM, first compound 0.00316 µM): 91.8%
viability, T/C (second compound 0.316 µM, first compound 0.01 µM): 86.7%
viability, T/C (second compound 0.316 µM, first compound 0.0316 µM): 84.6%
viability, T/C (second compound 0.316 µM, first compound 0.1 µM): 85.3%
viability, T/C (second compound 1 µM, first compound 0.000316 µM): 106%
viability, T/C (second compound 1 µM, first compound 0.001 µM): 102%
viability, T/C (second compound 1 µM, first compound 0.00316 µM): 104%
viability, T/C (second compound 1 µM, first compound 0.01 µM): 102%
viability, T/C (second compound 1 µM, first compound 0.0316 µM): 102%
viability, T/C (second compound 1 µM, first compound 0.1 µM): 94.7%
